Data: US20120302569A1, “PHENYL-THIAZOLYL INHIBITORS OF PRO-MATRIX METALLOPROTEINASE ACTIVATION” (priority 2011, published 2012)
Counter-ions that a name gives are not always drawn.

How the values were obtained:
[1] = molecular target: T1, full-length proMMP9(1-707) (SEQ ID NO:1) (Homo sapiens, UniProt P14780, R574P); assay: proMMP9/MMP3 P126 Activation Assay; format: biochemical; details: proMMP9(1-707) from HEK293 cells activated by catalytic MMP3
T1 construct: made in house; host or cells: HEK293 (proMMP9, secreted); E. coli (MMP3)
T1 sequence (P14780 20-707 R574P): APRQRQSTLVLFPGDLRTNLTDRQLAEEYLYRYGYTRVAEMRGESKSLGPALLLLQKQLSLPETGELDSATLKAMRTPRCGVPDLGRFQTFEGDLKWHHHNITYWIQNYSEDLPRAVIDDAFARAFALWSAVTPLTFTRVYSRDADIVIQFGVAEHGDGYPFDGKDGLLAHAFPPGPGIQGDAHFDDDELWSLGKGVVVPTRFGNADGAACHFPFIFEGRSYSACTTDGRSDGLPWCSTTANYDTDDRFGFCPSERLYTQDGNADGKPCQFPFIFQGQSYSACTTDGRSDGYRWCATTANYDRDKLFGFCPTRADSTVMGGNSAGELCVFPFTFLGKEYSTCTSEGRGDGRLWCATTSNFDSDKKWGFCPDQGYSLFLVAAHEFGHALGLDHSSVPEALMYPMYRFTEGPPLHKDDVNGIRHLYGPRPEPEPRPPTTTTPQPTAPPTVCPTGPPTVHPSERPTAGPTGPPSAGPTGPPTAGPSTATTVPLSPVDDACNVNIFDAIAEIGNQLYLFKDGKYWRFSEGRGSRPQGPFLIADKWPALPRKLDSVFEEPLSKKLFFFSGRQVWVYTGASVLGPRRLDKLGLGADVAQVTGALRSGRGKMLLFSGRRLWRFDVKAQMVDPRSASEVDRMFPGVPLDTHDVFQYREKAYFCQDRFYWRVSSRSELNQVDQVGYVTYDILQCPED
Experimental: proMMP9/MMP3 P126 Activation Assay
The reaction volume was 50 μL. […] Reactivity of residual MMP3 towards P-126 substrate was minimal under these conditions.

[2] = molecular target: T2, proMMP9(67-444;ΔFnII) (SEQ ID NO:5) (Homo sapiens, UniProt P14780, DEL216-390); assay: ThermoFluor with proMMP9(67-444;ΔFnII); details: read-out: proMMP9(67-444; ΔFnII) (SEQ ID NO: 5) binding
T2 construct: start methionine (N); made in house; host or cells: E. coli BL21(DE3) RIL
T2 sequence (P14780 with tags, fused parts or gaps DEL216-390): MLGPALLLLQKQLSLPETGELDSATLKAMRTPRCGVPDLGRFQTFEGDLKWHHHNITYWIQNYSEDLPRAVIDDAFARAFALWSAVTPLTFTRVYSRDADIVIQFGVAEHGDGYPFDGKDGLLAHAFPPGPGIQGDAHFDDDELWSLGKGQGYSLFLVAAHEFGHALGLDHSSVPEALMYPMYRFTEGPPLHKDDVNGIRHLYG
Experimental: (§1) The ThermoFluor® (TF) assay is a 384-well plate-based binding assay that measures thermal stability of proteins (Biomol Screen 2001, 6, 429-40; Biochemistry 2005, 44, 5258-66). The experiments were carried out using instruments available from Johnson & Johnson Pharmaceutical Research & Development, LLC. TF dye used in all experiments was […] (1,8-ANS) (Invitrogen: A-47).
(§2) Compounds were arranged in a pre-dispensed plate (Greiner Bio-one: 781280), wherein compounds were serially diluted in 100% DMSO across 11 columns within a series. Columns 12 and 24 were used as DMSO reference and contained no compound. For multiple compound concentration-response experiments, the compound aliquots (50 nL) were robotically predispensed directly into black 384-well polypropylene PCR microplates (Abgene: TF-0384/k) using a Cartesian Hummingbird liquid handler (DigiLab, Holliston, Mass.). Following compound dispense, protein and dye solutions were added to achieve the final assay volume of 3 μL. The assay solutions were overlayed with 1 μL of silicone oil (Fluka, type DC 200: 85411) to prevent evaporation.
(§3) Assay plates were robotically loaded onto a thermostatically controlled PCR-type thermal block and then heated from 40 to 90° C. at a ramp-rate of 1° C./min for all experiments. Fluorescence was measured by continuous illumination with UV light (Hamamatsu LC6) supplied via fiber optics and filtered through a band-pass filter (380-400 nm; >6 OD cutoff). Fluorescence emission of the entire 384-well plate was detected by measuring light intensity using a CCD camera (Sensys, Roper Scientific) filtered to detect 500±25 nm, resulting in simultaneous and independent readings of all 384 wells. A single image with 20-sec exposure time was collected at each temperature, and the sum of the pixel intensity in a given area of the assay plate was recorded vs temperature and fit to standard equations to yield the Tm (J Biomol Screen 2001, 6, 429-40).
(§4) Thermodynamic parameters necessary for fitting compound binding for each proMMP were estimated by differential scanning calorimetry (DSC) and from ThermoFluor® data. The heat capacity of unfolding for each protein was estimated from the molecular weight and from ThermoFluor® dosing data.
ThermoFluor® with proMMP9(67-444;ΔFnII) (SEQ ID NO:5)
The protein sample preparations had to include a desalting buffer exchange step via a PD-10 gravity column (GE Healthcare). The desalting buffer exchange was performed prior to diluting the protein to the final assay concentration of 3.5 μM proMMP9(67-444;ΔFnII) (SEQ ID NO:5). The concentration of proMMP9(67-444;ΔFnII) (SEQ ID NO:5) was determined spectrophotometrically based on a calculated extinction coefficient of ε280=33900 M^−1cm^−1, a calculated molecular weight of 22.6 kDa, and calculated pI of 5.20. ThermoFluor® reference conditions were defined as follows: 80 μg/mL (3.5 μM) proMMP9(67-444;ΔFnII) (SEQ ID NO:5), 50 μM 1,8-ANS, pH 7.0 Buffer (50 mM HEPES pH 7.0, 100 mM NaCl, 0.001% Tween-20, 2.5 mM MgCl2, 300 μM CaCl2). The thermodynamic parameters for proMMP9(67-444;ΔFnII) (SEQ ID NO:5) are as follows: Tm (° C.)=63 (+/−0.1), ΔUH(Tm) (cal mol^−1)=105000(+/−5000), ΔUS(Tm) (cal mol^−1 K^−1)=450, […].

[3] = molecular target: T3, proMMP9(20-445;ΔFnII) (SEQ ID NO:6) (Homo sapiens, UniProt P14780, DEL216-390); assay: ThermoFluor with proMMP9(20-445;ΔFnII); details: read-out: proMMP9(20-445; ΔFnII) (SEQ ID NO: 6) binding
T3 construct: start methionine (N); made in house; host or cells: E. coli BL21(DE3) RIL
T3 sequence (P14780 with tags, fused parts or gaps DEL216-390): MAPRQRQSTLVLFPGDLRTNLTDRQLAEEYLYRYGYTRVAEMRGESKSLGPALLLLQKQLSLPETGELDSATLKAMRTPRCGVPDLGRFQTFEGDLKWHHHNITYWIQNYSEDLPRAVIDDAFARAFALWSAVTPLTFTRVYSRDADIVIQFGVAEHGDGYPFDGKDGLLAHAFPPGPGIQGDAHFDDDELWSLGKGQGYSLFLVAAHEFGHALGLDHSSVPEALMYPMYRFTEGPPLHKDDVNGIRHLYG
Experimental: as §1, §2, §3, §4
ThermoFluor® with proMMP9(20-445;ΔFnII) (SEQ ID NO:6)
The protein sample preparations included a desalting buffer exchange step via a PD-10 gravity column (GE Healthcare). The desalting buffer exchange was performed prior to diluting the protein to the final assay concentration of 2.8 μM proMMP9(20-445;ΔFnII) (SEQ ID NO:6). The concentration of proMMP9(20-445;ΔFnII) (SEQ ID NO:6) was determined spectrophotometrically based on a calculated extinction coefficient of ε280=39880 M^−1cm^−1, a calculated molecular weight of 28.2 kDa, and calculated pI of 5.5. ThermoFluor® reference conditions were define as follows: 80 μg/mL (2.8 μM) proMMP9(20-445;ΔFnII) (SEQ ID NO:6), 50 μM 1,8-ANS, pH 7.0 Buffer (50 mM HEPES pH 7.0, 100 mM NaCl, 0.001% Tween-20, 2.5 mM MgCl2, 300 μM CaCl2). The thermodynamic parameters for proMMP9(20-445;ΔFnII) (SEQ ID NO:6) are as follows: Tm (° C.)=72 (+/−0.1), ΔUH(Tm) (cal mol^−1)=160000(+/−5000), ΔUS(Tm) (cal mol^−1 K^−1)=434, ΔUCp (cal mol^−1 K^−1)=2400.

| IC50 [1] | Kd [2] | Kd [3] | Structure (SMILES) |
| --- | --- | --- | --- |
| 1100 nM | 150 nM | 75 nM | CC(C)Oc1ccc(S(N)(=O)=O)cc1Nc1nc(-c2ccc(OCCN3CCC(F)(F)CC3)cc2)cs1 [Example 31, 3-((4-(4-(2-(4,4-Difluoropiperidin-1-yl)ethoxy)phenyl)thiazol-2-yl)amino)-4-isopropoxybenzenesulfonamide.TFA] |
| 430 nM | 390 nM | 100 nM | CC(C)Oc1ccc(C(N)=O)cc1Nc1nc(-c2ccc(OCCN3CCC(F)(F)CC3)cc2)cs1 [Example 32, 3-((4-(4-(2-(4,4-Difluoropiperidin-1-yl)ethoxy)phenyl)thiazol-2-yl)amino)-4-isopropoxybenzamide.TFA] |
| 16000 nM | 650 nM | 1300 nM | NS(=O)(=O)c1ccc(OC(F)(F)F)c(Nc2nc(-c3ccc(OCCN4CCC(F)(F)CC4)cc3)cs2)c1 [Example 33, 3-((4-(4-(2-(4,4-difluoropiperidin-1-yl)ethoxy)phenyl)thiazol-2-yl)amino)-4-(trifluoromethoxy)benzenesulfonamide.TFA] |
| 120 nM | 28 nM | 21 nM | CC(C)Oc1ccc(S(N)(=O)=O)cc1Nc1nc(-c2ccc(OCCN3CCC(F)CC3)cc2)cs1 [Example 34, 3-((4-(4-(2-(4-fluoropiperidin-1-yl)ethoxy)phenyl)thiazol-2-yl)amino)-4-isopropoxybenzenesulfonamide.TFA] |
| 780 nM | 1000 nM | 4300 nM | COc1ccncc1Nc1nc(-c2ccc(OCCN3CCC(F)CC3)cc2)cs1 [Example 35, 4-(4-(2-(4-fluoropiperidin-1-yl)ethoxy)phenyl)-N-(4-methoxypyridin-3-yl)thiazol-2-amine.TFA] |
| 92 nM | 96 nM | 1800 nM | CCOc1ccncc1Nc1nc(-c2ccc(OCCN3CCC(F)CC3)cc2)cs1 [Example 36, N-(4-ethoxypyridin-3-yl)-4-(4-(2-(4-fluoropiperidin-1-yl)ethoxy)phenyl)thiazol-2-amine.TFA] |
| 360 nM | 270 nM | 74 nM | NC(=O)c1ccc(OC(F)(F)F)c(Nc2nc(-c3ccc(OCCN4CCC(F)CC4)cc3)cs2)c1 [Example 37, 3-((4-(4-(2-(4-fluoropiperidin-1-yl)ethoxy)phenyl)thiazol-2-yl)amino)-4-(trifluoromethoxy)benzamide.TFA] |
| > 20000 nM | 3000 nM | 2600 nM | NS(=O)(=O)c1cc2c(c(Nc3nc(-c4ccc(OCCN5CCC(F)CC5)cc4)cs3)c1)OCC2 [Example 38, 7-((4-(4-(2-(4-fluoropiperidin-1-yl)ethoxy)phenyl)thiazol-2-yl)amino)-2,3-dihydrobenzofuran-5-sulfonamide.TFA] |
| 720 nM | 640 nM | 550 nM | COc1cc(C)c(C(N)=O)cc1Nc1nc(-c2ccc(OCCN3CCC(F)CC3)cc2)cs1 [Example 39, 5-((4-(4-(2-(4-fluoropiperidin-1-yl)ethoxy)phenyl)thiazol-2-yl)amino)-4-methoxy-2-methylbenzamide.TFA] |
| 1300 nM | 660 nM | 190 nM | CC(C)Cc1ccc(C(N)=O)cc1Nc1nc(-c2ccc(OCCN3CCC(F)CC3)cc2)cs1 [Example 40, 3-((4-(4-(2-(4-fluoropiperidin-1-yl)ethoxy)phenyl)thiazol-2-yl)amino)-4-isobutylbenzamide.TFA] |
| 620 nM | 180 nM | 330 nM | NS(=O)(=O)c1ccc(OC(F)(F)F)c(Nc2nc(-c3ccc(OCCN4CCC(F)CC4)cc3)cs2)c1 [Example 41, 3-((4-(4-(2-(4-fluoropiperidin-1-yl)ethoxy)phenyl)thiazol-2-yl)amino)-4-(trifluoromethoxy)benzenesulfonamide.TFA] |
| 110 nM | 79 nM | 36 nM | CC(C)Oc1ccc(S(N)(=O)=O)cc1Nc1nc(-c2ccc(CN3CCN(C4CC4)CC3)cc2)cs1 [Example 51, 3-((4-(4-((4-cyclopropylpiperazin-1-yl)methyl)phenyl)thiazol-2-yl)amino)-4-isopropoxybenzenesulfonamide.TFA] |
| 110 nM | 87 nM | 27 nM | CC(C)Oc1ccc(C(N)=O)cc1Nc1nc(-c2ccc(CN3CC[C@@H](F)C3)cc2)cs1 [Example 52, (R)-3-((4-(4-((3-fluoropyrrolidin-1-yl)methyl)phenyl)thiazol-2-yl)amino)-4-isopropoxybenzamide.TFA] |
| 95 nM | 110 nM | 31 nM | CC(C)Oc1ccc(C(N)=O)cc1Nc1nc(-c2ccc(CN3CCC(F)CC3)cc2)cs1 [Example 54, 3-((4-(4-((4-fluoropiperidin-1-yl)methyl)phenyl)thiazol-2-yl)amino)-4-isopropoxybenzamide.TFA] |
| 140 nM | 53 nM | 30 nM | CC(C)Oc1ccc(S(N)(=O)=O)cc1Nc1nc(-c2ccc(CN3CCC(F)CC3)cc2)cs1 [Example 55, 3-((4-(4-((4-fluoropiperidin-1-yl)methyl)phenyl)thiazol-2-yl)amino)-4-isopropoxybenzenesulfonamide.TFA] |
| 250 nM | 210 nM | 56 nM | CC(C)Oc1ccc(C(N)=O)cc1Nc1nc(-c2ccc(CN3CCOCC3)cc2)cs1 [Example 58, 4-isopropoxy-3-((4-(4-(morpholinomethyl)phenyl)thiazol-2-yl)amino)benzamide.TFA] |
